# Results: patent publication US9457062B2, “Chaperonin 10-induced immunomodulation” (CBIO LIMITED, priority 2005, dated 2016)
# Tests used:
# [1] = target: T1, TLR4 (Homo sapiens, UniProt O00206); assay: FRET with TLR4 on MonoMac 6 cells; assay type: binding
# T1 construct: endogenous in cells; host or cells: freshly isolated human monocytes; human monocyte-derived DC
# Protocol: (§1) Cell labeling for FRET. MonoMac 6 cells (a human monocytic cell line) were labeled with 100 μl of a mixture of donor conjugated antibody (Cy3) and acceptor conjugated antibody (Cy5). For labelling of Cpn10, an anti-Cpn10 rabbit polyclonal antibody was used. […] The cells were fixed in order to prevent potential re-organisation of the proteins during the course of the experiment. Confocal imaging. Cells were imaged on a Carl Zeiss, Inc. LSM510 confocal microscope (with an Axiovert 200 fluorescent microscope) using a 1.4 NA 63× Zeiss objective. The images were analysed using LSM 2.5 image analysis software (Carl Zeiss, Inc.). Cy3 and Cy5 were detected using the appropriate filter sets. Using typical exposure times for image acquisition (less than 5 s), no fluorescence was observed from a Cy3-labelled specimen using the Cy5 filters, nor was Cy5 fluorescence detected using the Cy3 filter sets. FRET measurements. […] In the present study, FRET was measured using a method as previously described (Kenworthy and […] (1998) Journal of Cell Biology 142: 69-84; Kenworthy and […] (1998) in Gelb, M. H. (Ed.) Methods in molecular Biology. Humana Press Inc, Totowa, N.J. pp 37-49). Briefly, samples were labeled with donor and acceptor conjugated antibodies, and energy transfer was detected as an increase in donor fluorescence (dequenching) after complete photobleaching of the acceptor molecule. […]
# [2] = target: T2, CXCR4 (Homo sapiens, UniProt P61073); assay: FRET with CXCR4 on MonoMac 6 cells; assay type: binding
# T2 construct: MonoMac 6 cells (a human monocytic cell line); endogenous in cells; host or cells: MonoMac 6
# Protocol: as §1
# [3] = test system: Hsp70; assay: FRET with Hsp70 on MonoMac 6 cells; assay type: binding, human
# Protocol: as §1
# [4] = target: T3, CD14 (Homo sapiens, UniProt P08571); assay: FRET with CD14 on MonoMac 6 cells; assay type: binding
# T3 construct: MonoMac 6 cells (a human monocytic cell line); endogenous in cells; host or cells: MonoMac 6
# T3 sequence (P08571 20-345): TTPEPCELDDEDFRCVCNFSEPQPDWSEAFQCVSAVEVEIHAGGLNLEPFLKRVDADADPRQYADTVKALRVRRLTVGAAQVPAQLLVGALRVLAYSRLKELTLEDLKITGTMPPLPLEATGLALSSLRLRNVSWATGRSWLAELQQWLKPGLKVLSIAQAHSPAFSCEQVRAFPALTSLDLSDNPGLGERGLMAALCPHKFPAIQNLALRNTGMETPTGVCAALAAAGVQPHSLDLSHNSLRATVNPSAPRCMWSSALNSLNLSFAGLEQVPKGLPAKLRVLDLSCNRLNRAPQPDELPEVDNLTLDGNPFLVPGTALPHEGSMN
# Protocol: as §1
# [5] = test system: Hsp90; assay: FRET with Hsp90 on MonoMac 6 cells; assay type: binding, human
# Protocol: as §1
# [6] = target: T4, TLR3 (Mus musculus, UniProt Q99MB1); assay: IFNβ ELISA of supernatants of RAW264.7 cells stimulated with polyI:C; assay type: cell-based
# T4 construct: Experiments were conducted in the murine macrophage cell line RAW264.7; endogenous in cells; host or cells: RAW264.7 / RAW264-pNifty2-LUC
# Protocol: Briefly, RAW264.7 cells were seeded at 2×10^5 cells/well in 24 well plates and cultured overnight (37° C., 5% CO2). Recombinant human Cpn10 (at concentrations between 10 μg/ml and 200 μg/ml) or buffer was added to cells in duplicate for 2 hours followed by the addition of polyI:C (tlrl-pic, InvivoGen, San Diego, Calif.) to a final concentration of 100 μg/ml. After 24 hours, supernatants were collected and analysed for IFNβ levels using a specific ELISA according to manufacturer's instructions (Cat No. 42400-1, R&D Systems Inc, Minneapolis, Minn.).
# [7] = test system: GM1; assay: FRET with GM1 (lipid rafts) on MonoMac 6 cells; assay type: binding, human; conditions: donor GM1
# Protocol: Cell labeling for FRET. MonoMac 6 cells (a human monocytic cell line) were labeled with 100 μl of a mixture of donor conjugated antibody (Cy3) and acceptor conjugated antibody (Cy5). For labelling of Cpn10, an anti-Cpn10 rabbit polyclonal antibody was used. The cells were rinsed twice in PBS/0.02% BSA, prior to fixation with 4% formaldehyde for 15 min. The cells were fixed in order to prevent potential re-organisation of the proteins during the course of the experiment. Confocal imaging. Cells were imaged on a Carl Zeiss, Inc. LSM510 confocal microscope (with an Axiovert 200 fluorescent microscope) using a 1.4 NA 63× Zeiss objective. The images were analysed using LSM 2.5 image analysis software (Carl Zeiss, Inc.). Cy3 and Cy5 were detected using the appropriate filter sets. Using typical exposure times for image acquisition (less than 5 s), no fluorescence was observed from a Cy3-labelled specimen using the Cy5 filters, nor was Cy5 fluorescence detected using the Cy3 filter sets. FRET measurements. FRET is a non-invasive imaging technique used to determine molecular proximity. […]
# In the present study, FRET was measured using a method as previously described (Kenworthy and Edidin (1998) Journal of Cell Biology 142: 69-84; Kenworthy and Edidin (1998) in Gelb, M. H. (Ed.) Methods in molecular Biology. Humana Press Inc, Totowa, N.J. pp 37-49). […]
# [8] = test system: Cpn10 promoter; assay: Cpn10 promoter luciferase reporter (pCAT/LUC-CPN) in RAW264.7 cells; assay type: cell-based, mouse; conditions: for up-regulation of the Cpn10 promoter: optimal agonist concentrations (FIG. 18H): IFNγ 1 ng/ml, IL-1β 1 ng/ml, TNF-α 100 ng/ml
# Text: Reagents. Recombinant human Cpn10 was produced to GMP specifications by BresaGen Limited (Adelaide, Aus) essentially as described previously (Johnson, B. 2005. J. Biol Chem 280:4037-4047). […] For FACS analysis, a cysteine residue was engineered onto the C-terminus of Cpn10 and labeled with AlexFluor647 (Invitrogen) according to manufacturer's instructions. […] TLR ligands and cytokines included: E. coli LPS (strain 055:B5, Sigma), E. coli ultra-pure LPS (0111:B4 Sigma), S. aureus LTA, B. subtilis LTA, S. aureus PGN, B. subtilis PGN, zymosan cell wall from S. cerevisae, poly(I:C), imiquimod R837, CpG ODN 1826 and ODN2216, GpC ODN1826 control, (all from Invivogen, San Diego, Calif.), recombinant mouse IFNγ, (Chemicon), IL-1β (PeproTech), and recombinant human TNF-α (Invivogen). Antibodies. Rabbit polyclonal antibodies were raised against Cpn10 and affinity purified at CBio. Cytometric Bead Array (CBA) Flex Sets recognizing phosphorylated signal proteins (both human and mouse) including ERK1/2 (T202/Y204), JNK1/2 (T183/Y185), p38/MAPKinase (T180/Y182), CD14, and FcBlock (CD16/CD32) were from BD. Transfection, Cell Stimulation and Promoter analysis. The pCAT/LUC-CPN promoter construct was provided by M. Ryan and N. Hoogenraad (La Trobe University, Melbourne). RAW264.7 cells were transiently transfected using GeneJuice (Novagen). After 24 h cells were harvested and cell viability assessed by trypan blue dye exclusion. Cells were seeded into 24-well plates and heat shocked (43° C. for 15 min (mild), 30 min (moderate), or 60 min (severe)) followed by recovery at 37° C. or stimulated after 18 h. Cells were washed, harvested in Cell Culture Lysis Reagent (CCLR, Promega) and firefly luciferase signal measured using the Luciferase Assay System (Promega) and the Wallac Victor 2 Multilabel Counter (Perkin-Elmer). Real-time PCR. RAW264.7 cells were seeded at 2.5×10^5/ml in sterile 24 well plates and adhered for 16-20 hrs prior to stimulation. […] Cells were assessed for viability, pooled per condition (n=4), pelleted by centrifugation and resuspended in CCLR.
# [9] = test system: Cpn10 mRNA; assay: Cpn10 mRNA real-time PCR in RAW264.7 cells; assay type: cell-based, mouse; conditions: maximal induction at 18 h, near baseline by 24 h
# [10] = test system: RAW264.7 cells; assay: ELISA of endogenous Cpn10 in RAW264.7 culture supernatants and cell lysates; assay type: cell-based, mouse
# Text: Reagents. Recombinant human Cpn10 was produced to GMP specifications by BresaGen Limited (Adelaide, Aus) essentially as described previously (Johnson, B. 2005. J. Biol Chem 280:4037-4047). […] For FACS analysis, a cysteine residue was engineered onto the C-terminus of Cpn10 and labeled with AlexFluor647 (Invitrogen) according to manufacturer's instructions. […] TLR ligands and cytokines included: E. coli LPS (strain 055:B5, Sigma), E. coli ultra-pure LPS (0111:B4 Sigma), S. aureus LTA, B. subtilis LTA, S. aureus PGN, B. subtilis PGN, zymosan cell wall from S. cerevisae, poly(I:C), imiquimod R837, CpG ODN 1826 and ODN2216, GpC ODN1826 control, (all from Invivogen, San Diego, Calif.), recombinant mouse IFNγ, (Chemicon), IL-1β (PeproTech), and recombinant human TNF-α (Invivogen). Antibodies. Rabbit polyclonal antibodies were raised against Cpn10 and affinity purified at CBio. […] After 24 h cells were harvested and cell viability assessed by trypan blue dye exclusion. […] Cells were washed, harvested in Cell Culture Lysis Reagent (CCLR, Promega) and firefly luciferase signal measured using the Luciferase Assay System (Promega) and the Wallac Victor 2 Multilabel Counter (Perkin-Elmer). […] Cells were assessed for viability, pooled per condition (n=4), pelleted by centrifugation and resuspended in CCLR.
# [11] = test system: HeLa cells
# Protocol: (§2) For the data shown in FIG. 34, PolyI:C (supplied by Invivogen) was dissolved in sterile saline at 5 mg/ml stored frozen at −20° C. Vials were thawed and diluted into medium. For buffer controls, the same volume and sterile saline was added to cell culture wells. […] RAW264.7 cells were grown as adherent cultures in flasks and scraped (i.e. not trypisinised) prior to seeding into 96-well plates. HeLa cells were trypsinised in the standard way prior to seeding. Cells were seeded in duplicate in a 96-well plate (5×10^3 for RAW264.7 cells and 10^4 for HeLa cells in 50 μl medium per well). After 4 h, Cpn10 was added (in 50 μl diluted in medium) and after a further 30 mins polyI:C was added (in 50 μl diluted in medium). The cells were then incubated overnight in the 96-well plates and then RRV was added (MOI=1 for RAW264.7 cells, and MOI=10 for HeLa cells in 50 μl). After 3 days, the cells were fixed, stained with crystal violet, washed, dried and dye extracted with 100% methanol and read at A595 nm as described (Antalis et al, J Exp Med 1998, 187(11):1799). […] Titrations were established to determine the dose required for induction of anti-viral resistance for RAW264.7 cells and HeLa cells.
# [12] = test system: RAW264.7 cells
# Protocol: as §2
# T1 sequence (O00206 24-839): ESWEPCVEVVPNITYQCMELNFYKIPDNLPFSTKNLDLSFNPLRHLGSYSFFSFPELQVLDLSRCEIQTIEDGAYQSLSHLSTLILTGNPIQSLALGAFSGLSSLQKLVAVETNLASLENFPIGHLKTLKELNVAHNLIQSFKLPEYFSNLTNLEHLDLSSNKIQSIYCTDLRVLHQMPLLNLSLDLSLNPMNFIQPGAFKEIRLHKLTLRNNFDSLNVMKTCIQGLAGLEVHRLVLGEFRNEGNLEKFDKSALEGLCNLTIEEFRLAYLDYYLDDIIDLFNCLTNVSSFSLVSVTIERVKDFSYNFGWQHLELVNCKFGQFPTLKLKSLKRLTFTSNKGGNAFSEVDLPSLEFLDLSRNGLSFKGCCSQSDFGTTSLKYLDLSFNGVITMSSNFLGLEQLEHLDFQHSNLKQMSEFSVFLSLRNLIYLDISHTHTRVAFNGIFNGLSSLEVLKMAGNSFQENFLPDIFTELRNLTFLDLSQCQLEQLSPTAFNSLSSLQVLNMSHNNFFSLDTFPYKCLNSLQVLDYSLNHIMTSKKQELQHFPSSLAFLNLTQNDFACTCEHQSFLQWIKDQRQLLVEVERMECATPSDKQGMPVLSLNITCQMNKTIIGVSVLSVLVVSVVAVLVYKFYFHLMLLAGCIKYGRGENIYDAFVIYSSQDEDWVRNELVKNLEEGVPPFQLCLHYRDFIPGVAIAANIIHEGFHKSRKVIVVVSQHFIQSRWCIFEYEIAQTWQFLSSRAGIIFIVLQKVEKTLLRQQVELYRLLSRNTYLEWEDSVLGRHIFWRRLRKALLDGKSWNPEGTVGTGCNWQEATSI
# T4 sequence (Q99MB1 26-905): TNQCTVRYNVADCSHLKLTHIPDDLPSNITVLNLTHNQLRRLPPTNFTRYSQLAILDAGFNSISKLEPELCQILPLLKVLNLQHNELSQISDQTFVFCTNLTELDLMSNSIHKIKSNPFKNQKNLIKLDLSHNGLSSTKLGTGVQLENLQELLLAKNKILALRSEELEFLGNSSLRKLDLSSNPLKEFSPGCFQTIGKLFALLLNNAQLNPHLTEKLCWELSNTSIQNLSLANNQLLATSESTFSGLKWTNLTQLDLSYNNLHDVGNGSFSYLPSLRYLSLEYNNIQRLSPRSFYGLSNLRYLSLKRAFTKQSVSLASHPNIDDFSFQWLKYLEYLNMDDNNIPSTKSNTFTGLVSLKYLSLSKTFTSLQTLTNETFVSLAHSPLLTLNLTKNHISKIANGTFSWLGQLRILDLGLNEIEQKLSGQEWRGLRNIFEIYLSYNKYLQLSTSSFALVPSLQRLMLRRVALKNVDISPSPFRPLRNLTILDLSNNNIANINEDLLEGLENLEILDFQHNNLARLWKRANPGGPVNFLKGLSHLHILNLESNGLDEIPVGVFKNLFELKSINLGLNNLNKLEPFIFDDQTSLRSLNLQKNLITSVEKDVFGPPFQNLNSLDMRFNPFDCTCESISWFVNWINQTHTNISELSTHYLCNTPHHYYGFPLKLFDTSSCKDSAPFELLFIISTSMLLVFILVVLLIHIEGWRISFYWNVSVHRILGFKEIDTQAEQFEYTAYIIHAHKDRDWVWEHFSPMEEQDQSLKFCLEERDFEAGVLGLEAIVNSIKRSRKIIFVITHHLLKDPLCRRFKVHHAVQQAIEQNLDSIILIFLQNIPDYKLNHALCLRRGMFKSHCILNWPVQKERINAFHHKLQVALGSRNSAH
# T2 sequence (P61073 whole entry): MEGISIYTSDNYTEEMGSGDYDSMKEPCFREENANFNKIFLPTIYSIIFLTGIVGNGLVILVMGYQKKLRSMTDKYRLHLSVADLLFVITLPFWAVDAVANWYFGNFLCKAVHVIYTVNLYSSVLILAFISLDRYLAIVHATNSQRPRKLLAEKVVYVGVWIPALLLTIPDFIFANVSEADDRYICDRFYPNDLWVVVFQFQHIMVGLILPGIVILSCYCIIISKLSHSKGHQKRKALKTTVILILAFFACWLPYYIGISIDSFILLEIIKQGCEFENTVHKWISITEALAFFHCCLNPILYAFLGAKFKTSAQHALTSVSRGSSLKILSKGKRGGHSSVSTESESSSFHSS
substance,measurement,setting,value
"GroES: E. coli homologue of Cpn10, routinely used as a negative control",E ± ΔE (%) energy transfer efficiency,[1]; MM6 cells stimulated with LPS,8 ± 1.0%
same,E ± ΔE (%) energy transfer efficiency,[1]; Unstimulated MM6 cells,7 ± 1.5%
same,E ± ΔE (%) energy transfer efficiency,[2]; MM6 cells stimulated with LPS,3 ± 1.0%
same,E ± ΔE (%) energy transfer efficiency,[2]; Unstimulated MM6 cells,4 ± 2.0%
same,E ± ΔE (%) energy transfer efficiency,[3]; MM6 cells stimulated with LPS,7 ± 1.5%
same,E ± ΔE (%) energy transfer efficiency,[3]; Unstimulated MM6 cells,6 ± 1.0%
same,E ± ΔE (%) energy transfer efficiency,[4]; MM6 cells stimulated with LPS,7 ± 0.5%
same,E ± ΔE (%) energy transfer efficiency,[4]; Unstimulated MM6 cells,8 ± 1.0%
same,E ± ΔE (%) energy transfer efficiency,[5]; MM6 cells stimulated with LPS,8 ± 2.0%
same,E ± ΔE (%) energy transfer efficiency,[5]; Unstimulated MM6 cells,7 ± 1.5%
same,effect on polyI:C-induced IFNβ levels in culture supernatants,"[6]; polyI:C stimulation, 10-200 μg/ml protein",did not modulate the production of IFN-β
same,E ± ΔE (%) energy transfer efficiency,[7]; MM6 cells stimulated with LPS,6 ± 1.0%
same,E ± ΔE (%) energy transfer efficiency,[7]; Unstimulated MM6 cells,7 ± 1.5%
"IL-1β: IL-1β (PeproTech), non-TLR agonist",up-regulation of the Cpn10 promoter,[8],did not induce substantial up-regulation
TNF-α,up-regulation of the Cpn10 promoter,[8],did not induce substantial up-regulation
lipoteichoic acid [LTA],induction of Cpn10 mRNA,[9],concentration-dependent induction of Cpn10 mRNA
same,induction of the Cpn10 promoter,"[8]; 24 hour stimulation, constant at 30 hours",2.7 fold
same,intracellular Cpn10 levels in cell lysates,[10]; LTA treated vs control cells,little change in intracellular Cpn10 levels
same,increase in soluble (extracellular) Cpn10 in culture supernatants over unstimulated control cells,"[10]; after 30 h, 100 μg/ml LTA",3 fold
polyinosinic-polysytidilic acid [polyI:C],toxicity,[11],No such toxicity was observed
same,concentrations showing clear signs of toxicity,[12],5000 to 10000 ng/mL
same,IFNβ released into culture supernatants,"[6]; polyI:C at 100 μg/ml, absence of Cpn10",292 pg/mL
